Patent publication US8147838B2, “Peptide” (priority 2005, dated 2012)
No end group written: not given here.

Assays:
[1] = system: PBMCs recovered from patients treated with TroVax; assay: IFNγ ELISPOT with PBMCs from TroVax treated patients; format: cell-based, human
[2] = target: MHC class I allele B*0702 (B7) (Homo sapiens, UniProt P01889); assay: iScore multi-parametric analysis, B*0702; conditions: level of binding: >0.5, 0.25-0.5, <0.25
Summary of the method: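 Ranking score combining ED50 and stability half-life of peptide-MHC complexes, giving one measure of binding quality per peptide. Bands: <0.25 poor, 0.25–0.5 medium, >0.5 good quality binding.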

[3] = target: MHC class I allele A*0101 (A1) (Homo sapiens, UniProt P04439, A114D/A174V/A182V/D101N/D185E/E176A/E190D/L180R/Q94H/R68K/S129P/T187R/V100A/V91M/W191G); assay: iScore multi-parametric analysis, A*0101; format: binding; conditions: level of binding: >0.5, 0.25-0.5, <0.25
Summary of the method: (§1)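 Composite binding-quality index from multiparametric analysis of peptide–MHC half-life and ED50. Thresholds established on A*0201 (>0.5, 0.25–0.5, <0.25) are allele-specific and not necessarily applicable to A*0301, A*0101 or B*0702.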

[4] = target: MHC class I allele A*0301 (A3) (Homo sapiens, UniProt P04439); assay: iScore multi-parametric analysis, A*0301; format: binding; conditions: level of binding: >0.5, 0.25-0.5, <0.25
Summary of the method: as §1

[5] = target: MHC class I allele A*0201 (A2) (Homo sapiens, UniProt P04439, D140Y/D185E/D98H/E176V/E277Q/G131W/G231S/I119V/I121R/I166T/I218V/L300P/L318F/N151K/N90K/P208A/P217A/Q86G/Q94H/R138H/R169H/T345S); assay: iScore multi-parametric analysis, A*0201; format: binding; conditions: level of binding: >0.5, 0.25-0.5, <0.25
Summary of the method: as §1

[6] = 10 mer vs 9 mer experiment, absence of A2 blocking antibody, FIG. 14
[7] = PBMCs of patient TV2-018, X+6 wk and X+10 wk, FIG. 11-13

Sequence	IFNγ ELISPOT response [1, 6]	iScore, MHC Class I Molecule B*0702 [2]	iScore, MHC Class I Molecule A*0101 [3]	iScore, MHC Class I Molecule A*0301 [4]	iScore, MHC Class I Molecule A*0201 [5]	IFNγ ELISPOT response [1, 7]	IFNγ ELISPOT response with A2 blocking antibody (clone BB7.2) / A2 restriction ([1]; presence of A2 blocking antibody)
NLFLTGNQL [Peptide 48]	no response	0	0	0	0.107	–	–
NLTEVPTDL [Peptide 41]	no response	0	0	0	0.253	–	–
NLTEVPTDLP [10 mer peptide 41]	no response	–	–	–	–	–	–
RLARLALVLL [10 mer peptide 9]	response	–	–	–	–	capable of inducing an ex-vivo IFNγ response	A2 restricted
RLRLARLALV [10 mer peptide 8]	response	–	–	–	–	capable of inducing an ex-vivo IFNγ response	–
TGNQLAVLP [Peptide 50]	no response	0	0	0	0.044	–	–
TGNQLAVLPA [10 mer peptide 50]	no response	–	–	–	–	–	–
